From patent US6972175B2, “Inhibition of Egr-1 expression by ppar-gamma agonists and related compositions and methods” (priority 2002, dated 2005)

How the values were obtained:
[1] = Murine survival following lung ischemia/reperfusion injury; format: in vivo, mouse; settings: 1 hour after circulatory exclusion of nonischemic lung
Method: Murine ischemia/reperfusion model. C57BL6/J mice (male, 12–15 weeks old) purchased from Jackson Laboratories (Bar Harbor, Me.) were used in these experiments according to a protocol approved by the Institutional Animal Care and Use Committee at Columbia University, in accordance with guidelines of the American Association for the Accreditation of Laboratory Animal Care.
Troglitazone was administered to mice by oral gavage (0.1 mL/mouse) for 7 days at doses of 0, 5, and 100 mg/kg/day, prepared as a suspension in 0.5% methylcellulose solution. For control experiments, methylcellulose solution alone was used for gavage (these experiments are referred to as “vehicle” controls). The ischemia/reperfusion stress followed on day 8. […] Survival was measured 1 hour after circulatory exclusion of the nonoperated lung (by ligating the right hilum), which was performed after both the ischemic and reperfusion (3 hours) periods had elapsed. […]
Statistics. […] Survival was estimated by the Kaplan-Meier method, with differences in survival determined by log-rank analysis. Values are expressed as mean±standard error of the mean (SEM), with differences considered statistically significant when p<0.05.

Egr-1 = assay: Hypoxia-driven Egr-1 induction in macrophages (data not shown); format: cell-based
Method: (§1) Cell culture and induction of hypoxia. A rat alveolar macrophage cell line (NR8383) was obtained from the ATCC (Manassas, Va.), and cells were grown to 70% confluence in Ham's F-12K medium containing 15% heat-inactivated fetal bovine serum. Cells were made quiescent by serum starvation (0.2%, fetal bovine serum) for 24 hours. The PPAR-γ ligands were obtained from the following sources: troglitazone was provided by Sankyo Pharmaceutical Co. (Tokyo, Japan); and 15-d-PGJ2 was purchased from Cayman Chemical Co. (Ann Arbor, Mich.). The PPAR-α ligand bezafibrate was obtained from Sigma Chemical Co. (St. Louis. Mo.). These PPAR ligands were dissolved in minute quantities of DMSO (final concentration 0.005%). PPAR ligands were added 6 hours prior to induction of hypoxia. Using an environmental chamber described previously (Yan, 1999), cells were subjected to 30 minutes hypoxia (pO2 in the medium ˜12–14 torr. This time was chosen because it has previously been shown that this is the time of maximal Egr-1 expression in hypoxic macrophages. Cells subjected to hypoxia were placed in medium pre-equilibrated with the hypoxic gas mixture just prior to placement in the environmental chamber. Thus, cultures were immersed immediately in the oxygen-deprived environment at the time of medium change, coinciding with time of placement in the chamber.

Egr-1 mRNA = Egr-1 mRNA levels by Northern blotting in hypoxic mononuclear phagocytes; format: cell-based, rat; settings: NR8383 cells, ligand added 6 hours before 30 minutes hypoxia; Northern blot, FIG. 1a
Method: Cell culture and induction of hypoxia. A rat alveolar macrophage cell line (NR8383) was obtained from the ATCC (Manassas, Va.), and cells were grown to 70% confluence in Ham's F-12K medium containing 15% heat-inactivated fetal bovine serum. Cells were made quiescent by serum starvation (0.2%, fetal bovine serum) for 24 hours. The PPAR-γ ligands were obtained from the following sources: troglitazone was provided by Sankyo Pharmaceutical Co. (Tokyo, Japan); and 15-d-PGJ2 was purchased from Cayman Chemical Co. (Ann Arbor, Mich.). The PPAR-α ligand bezafibrate was obtained from Sigma Chemical Co. (St. Louis. Mo.). These PPAR ligands were dissolved in minute quantities of DMSO (final concentration 0.005%). PPAR ligands were added 6 hours prior to induction of hypoxia. […]

Egr-1/DNA binding = assay: Electrophoretic mobility gel shift assay on nuclear extracts from NR8383 cells; format: cell-based, rat; settings: nuclear extracts of NR8383 cells 30 minutes after hypoxia; 1 or 20 μM 15-d-PGJ2, 20 μM troglitazone, 20 μM bezafibrate; FIG. 1c
Method: as §1
Electrophoretic mobility gel shift assay. […]

Egr-1 protein = Egr-1 protein expression by Western blotting in hypoxic mononuclear phagocytes; format: cell-based, rat; settings: ligand added 6 hours before 30 minutes hypoxia; Western blot, FIG. 1b
Method: as §1
Western blotting. […]

Cc1c(C)c2c(c(C)c1O)CCC(C)(COc1ccc(CC3SC(=O)NC3=O)cc1)O2 (stereo not shown) [troglitazone]
survival relative to vehicle-treated mice ([1]; vehicle 10% survival): 4 times | survival ([1]; 1 hour ischemia, 3 hours reperfusion, FIG. 4f): 40%

CCCCCC=CC=C1C(=O)C=C[C@@H]1CC=CCCCC(=O)O [15-d-PGJ2, 15-deoxy-Δ^12,14-prostaglandinJ2]
hypoxia-driven Egr-1 induction in macrophages (Egr-1): inhibited hypoxia-induced expression of Egr-1 | potency of inhibition of hypoxia-induced Egr-1 expression compared with troglitazone (Egr-1; macrophages, parallel study): equal potency as troglitazone | Egr-1 mRNA levels after hypoxia (Egr-1 mRNA): significantly reduced | gel shift band associated with Egr-1/DNA binding (Egr-1/DNA binding): virtually abrogated | Egr-1 protein levels after hypoxia (Egr-1 protein): significantly inhibited
